Test results: patent US10035790B2, “RORγ modulators” (BRISTOL-MYERS SQUIBB COMPANY, priority 2012, dated 2018)

Biological target: T1, ligand binding domain of human RORγ (A262-S507) (Homo sapiens, UniProt P51449)
T1 construct: made in house; host or cells: E. coli
T1 sequence (P51449 262-507): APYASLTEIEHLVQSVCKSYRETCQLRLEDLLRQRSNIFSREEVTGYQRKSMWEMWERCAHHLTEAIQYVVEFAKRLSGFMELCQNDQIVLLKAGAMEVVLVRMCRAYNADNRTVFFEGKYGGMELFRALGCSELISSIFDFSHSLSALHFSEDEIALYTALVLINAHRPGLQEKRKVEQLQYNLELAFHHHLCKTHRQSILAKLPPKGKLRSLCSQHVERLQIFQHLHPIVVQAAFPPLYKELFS
Assay: General RORγ SPA binding assay (competition with [3H]25-hydroxycholesterol)
Conditions: RORγ SPA binding assay, inhibition of [3H]25-hydroxycholesterol binding; read-out: IC50
In short: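 N-terminally His-tagged protein was expressed in E. coli and nickel-purified. Then 50 nM protein was preincubated with compound for 15 min at room temperature in PBS with 0.5% fatty acid free BSA, followed by radioligand for 15 min and copper His-tag SPA beads for 30 min. IC50 came from percent inhibition of binding.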

Row | Structure (SMILES) | IC50
1 | Cc1nc(C)c(-c2ncc(-c3ccnc(C(F)(F)F)n3)o2)c(C2CCN(C(=O)Nc3c(F)cccc3F)CC2)n1 [Compound C68, N-(2,6-Difluorophenyl)-4-(2,6-dimethyl-5-{5-[2-(trifluoromethyl)pyrimidin-4-yl]-1,3-oxazol-2-yl}pyrimidin-4-yl)piperidine-1-carboxamide] | 102 nM
2 | Cc1nc(N)nc(C2CCN(C(=O)Nc3c(F)cccc3F)CC2)c1-c1ncc(-c2ccnc(C(F)(F)F)n2)o1 [Compound C69, 4-(2-amino-6-methyl-5-{5-[2-(trifluoromethyl)pyrimidin-4-yl]-1,3-oxazol-2-yl}pyrimidin-4-yl)-N-(2,6-difluorophenyl)piperidine-1-carboxamide] | 30.8 nM
3 | Cc1nc(N)nc(C2CCN(C(=O)Nc3c(F)cccc3F)CC2)c1-c1cnc(-c2ccnc(C(F)(F)F)n2)o1 [Compound C70, 4-(2-Amino-6-methyl-5-{2-[2-(trifluoromethyl)pyrimidin-4-yl]-1,3-oxazol-5-yl}pyrimidin-4-yl)-N-(2,6-difluorophenyl)piperidine-1-carboxamide] | 108 nM
4 | Cc1nc(N)nc(C2CCN(C(=O)Nc3ccccc3Cl)CC2)c1-c1nnc(-c2ccnc(C(F)(F)F)n2)o1 [Compound C71, 4-(2-Amino-6-methyl-5-{5-[2-(trifluoromethyl)pyrimidin-4-yl]-1,3,4-oxadiazol-2-yl}pyrimidin-4-yl)-N-(2-chlorophenyl)piperidine-1-carboxamide] | 30.2 nM
5 | Cc1ncc(C(C)(O)CNc2cccc(Cl)c2)c(C2CCN(C(=O)Cc3c(F)cccc3F)CC2)n1 (stereo not drawn) [Compound D1, 1-(4-(5-(1-(3-Chlorophenylamino)-2-hydroxypropan-2-yl)-2-methylpyrimidin-4-yl)piperidin-1-yl)-2-(2,6-difluorophenyl)ethanone] | 2.6 nM
6 | Cc1ncc(C(C)(O)CNc2cccc(C(F)(F)F)n2)c(C2CCN(C(=O)Cc3c(F)cccc3F)CC2)n1 (stereo not drawn) [Compound D2, 2-(2,6-difluorophenyl)-1-(4-(5-(2-hydroxy-1-((6-(trifluoromethyl)pyridin-2-yl)amino)propan-2-yl)-2-methylpyrimidin-4-yl)piperidin-1-yl)ethanone] | 3.9 nM
7 | Cc1cc(C)cc(NCC(C)(O)c2cnc(C)nc2C2CCN(C(=O)Cc3c(F)cccc3F)CC2)c1 (stereo not drawn) [Compound D3, 2-(2,6-difluorophenyl)-1-(4-(5-(1-((3,5-dimethylphenyl)amino)-2-hydroxypropan-2-yl)-2-methylpyrimidin-4-yl)piperidin-1-yl)ethanone] | 5 nM
8 | Cc1ncc(C(C)(O)CNc2cccc(C(F)(F)F)c2)c(C2CCN(C(=O)Cc3c(F)cccc3F)CC2)n1 (stereo not drawn) [Compound D4, 2-(2,6-difluorophenyl)-1-(4-(5-(2-hydroxy-1-((3-(trifluoromethyl)phenyl)amino)propan-2-yl)-2-methylpyrimidin-4-yl)piperidin-1-yl)ethanone] | 6.1 nM
9 | Cc1ncc(C(C)(O)CNc2ccnc(C(F)(F)F)n2)c(C2CCN(C(=O)Cc3c(F)cccc3F)CC2)n1 (stereo not drawn) [Compound D5, 2-(2,6-difluorophenyl)-1-(4-(5-(2-hydroxy-1-((2-(trifluoromethyl)pyrimidin-4-yl)amino)propan-2-yl)-2-methylpyrimidin-4-yl)piperidin-1-yl)ethanone] | 8.4 nM
10 | Cc1cc(C)nc(NCC(C)(O)c2cnc(C)nc2C2CCN(C(=O)Cc3c(F)cccc3F)CC2)c1 (stereo not drawn) [Compound D6, 2-(2,6-difluorophenyl)-1-(4-(5-(1-((4,6-dimethylpyridin-2-yl)amino)-2-hydroxypropan-2-yl)-2-methylpyrimidin-4-yl)piperidin-1-yl)ethanone] | 23.3 nM
11 | Cc1ncc(C(C)(O)CNc2ccnc(Cl)c2)c(C2CCN(C(=O)Cc3c(F)cccc3F)CC2)n1 (stereo not drawn) [Compound D7, 1-(4-(5-(1-((2-chloropyridin-4-yl)amino)-2-hydroxypropan-2-yl)-2-methylpyrimidin-4-yl)piperidin-1-yl)-2-(2,6-difluorophenyl)ethanone] | 80 nM
12 | Cc1ncc(C(C)(O)CNc2cc(C(F)(F)F)ccn2)c(C2CCN(C(=O)Cc3c(F)cccc3F)CC2)n1 (stereo not drawn) [Compound D8, 2-(2,6-difluorophenyl)-1-(4-(5-(2-hydroxy-1-((4-(trifluoromethyl)pyridin-2-yl)amino)propan-2-yl)-2-methylpyrimidin-4-yl)piperidin-1-yl)ethanone] | 105 nM
13 | Cc1ccnc(NCC(C)(O)c2cnc(C)nc2C2CCN(C(=O)Cc3c(F)cccc3F)CC2)c1 (stereo not drawn) [Compound D9, 2-(2,6-difluorophenyl)-1-(4-(5-(2-hydroxy-1-((4-methylpyridin-2-yl)amino)propan-2-yl)-2-methylpyrimidin-4-yl)piperidin-1-yl)ethanone] | 118 nM
14 | Cc1ncc(C(C)(O)CNc2ccn(C)n2)c(C2CCN(C(=O)Cc3c(F)cccc3F)CC2)n1 (stereo not drawn) [Compound D10, 2-(2,6-difluorophenyl)-1-(4-(5-(2-hydroxy-1-((1-methyl-1H-pyrazol-3-yl)amino)propan-2-yl)-2-methylpyrimidin-4-yl)piperidin-1-yl)ethanone] | 4380 nM
15 | Cc1cc(C)cc(OCC(C)(O)c2cnc(C)nc2C2CCN(C(=O)Cc3c(F)cccc3F)CC2)c1 (stereo not drawn) [Compound D11, 2-(2,6-Difluorophenyl)-1-(4-(5-(1-(3,5-dimethylphenoxy)-2-hydroxypropan-2-yl)-2-methylpyrimidin-4-yl)piperidin-1-yl)ethanone] | 14.5 nM
16 | Cc1ncc(C(C)(O)COc2cccc(Cl)c2)c(C2CCN(C(=O)Cc3c(F)cccc3F)CC2)n1 (stereo not drawn) [Compound D12, 1-(4-(5-(1-(3-chlorophenoxy)-2-hydroxypropan-2-yl)-2-methylpyrimidin-4-yl)piperidin-1-yl)-2-(2,6-difluorophenyl)ethanone] | 6.2 nM
17 | Cc1ncc(C(C)(O)COc2cncc(Cl)c2)c(C2CCN(C(=O)Cc3c(F)cccc3F)CC2)n1 (stereo not drawn) [Compound D13, 1-(4-(5-(1-((5-chloropyridin-3-yl)oxy)-2-hydroxypropan-2-yl)-2-methylpyrimidin-4-yl)piperidin-1-yl)-2-(2,6-difluorophenyl)ethanone] | 8.9 nM

Second part, the molecule after the results:

Row | IC50 | Structure (SMILES)
18 | 481 nM | Cc1ncc(C(C)(O)COc2cccnc2)c(C2CCN(C(=O)Cc3c(F)cccc3F)CC2)n1 (stereo not drawn) [Compound D14, 2-(2,6-difluorophenyl)-1-(4-(5-(2-hydroxy-1-(pyridin-3-yloxy)propan-2-yl)-2-methylpyrimidin-4-yl)piperidin-1-yl)ethanone]
19 | 33.9 nM | Cc1cc(C)cc(CCC(C)(O)c2cnc(C)nc2C2CCN(C(=O)Cc3c(F)cccc3F)CC2)c1 (stereo not drawn) [Compound D15, 2-(2,6-Difluorophenyl)-1-(4-(5-(4-(3,5-dimethylphenyl)-2-hydroxybutan-2-yl)-2-methylpyrimidin-4-yl)piperidin-1-yl)ethanone]
20 | 12.3 nM | Cc1ncc(C(C)(O)CNc2cccc(C(F)(F)F)n2)c(C2CCN(C(=O)Nc3c(F)cccc3F)CC2)n1 (stereo not drawn) [Compound D16, N-(2,6-Difluorophenyl)-4-[5-(1-hydroxy-1-methyl-2-{[6-(trifluoromethyl)pyridin-2-yl]amino}ethyl)-2-methylpyrimidin-4-yl]piperidine-1-carboxamide]
21 | 88.8 nM | Cc1ncc(C(C)(O)CNc2ccnc(C(F)(F)F)n2)c(C2CCN(C(=O)Nc3c(F)cccc3F)CC2)n1 (stereo not drawn) [Compound D17, N-(2,6-Difluorophenyl)-4-[5-(1-hydroxy-1-methyl-2-{[2-(trifluoromethyl)pyrimidin-4-yl]amino}ethyl)-2-methylpyrimidin-4-yl]piperidine-1-carboxamide]
22 | 112 nM | Cc1ncc(C(C)(O)CNc2ccnc(C(F)(F)F)n2)c(C2CCN(C(=O)Nc3c(F)cccc3C(F)(F)F)CC2)n1 (stereo not drawn) [Compound D18, N-[2-Fluoro-6-(trifluoromethyl)phenyl]-4-[5-(1-hydroxy-1-methyl-2-{[2-(trifluoromethyl)pyrimidin-4-yl]amino}ethyl)-2-methylpyrimidin-4-yl]piperidine-1-carboxamide]
23 | 196 nM | Cc1ncc(C(C)(O)CN(C)c2ccnc(C(F)(F)F)n2)c(C2CCN(C(=O)Nc3c(F)cccc3F)CC2)n1 (stereo not drawn) [Compound D19, N-(2,6-Difluorophenyl)-4-[5-(1-hydroxy-1-methyl-2-{methyl[2-(trifluoromethyl)pyrimidin-4-yl]amino}ethyl)-2-methylpyrimidin-4-yl]piperidine-1-carboxamide]
24 | 72.8 nM | Cc1ncc(C(C)(O)CN(C)c2ccnc(C(F)(F)F)n2)c(C2CCN(C(=O)Cc3c(F)cccc3F)CC2)n1 (stereo not drawn) [Compound D20, 2-(4-{1-[(2,6-Difluorophenyl)acetyl]piperidin-4-yl}-2-methylpyrimidin-5-yl)-1-{methyl[2-(trifluoromethyl)pyrimidin-4-yl]amino}propan-2-ol]
25 | 47.7 nM | Cc1ncc(C(C)(O)CNc2nccc(C(F)(F)F)n2)c(C2CCN(C(=O)Nc3c(F)cccc3F)CC2)n1 (stereo not drawn) [Compound D21, N-(2,6-Difluorophenyl)-4-[5-(1-hydroxy-1-methyl-2-{[4-(trifluoromethyl)pyrimidin-2-yl]amino}ethyl)-2-methylpyrimidin-4-yl]piperidine-1-carboxamide]
26 | 76.1 nM | Cc1ncc(C(C)(O)CNc2nccc(C(F)(F)F)n2)c(C2CCN(C(=O)Nc3c(F)cccc3C(F)(F)F)CC2)n1 (stereo not drawn) [Compound D22, N-[2-Fluoro-6-(trifluoromethyl)phenyl]-4-[5-(1-hydroxy-1-methyl-2-{[4-(trifluoromethyl)pyrimidin-2-yl]amino}ethyl)-2-methylpyrimidin-4-yl]piperidine-1-carboxamide]
27 | 18.5 nM | Cc1ncc(C(C)(O)CNc2nccc(C(F)(F)F)n2)c(C2CCN(C(=O)Cc3c(F)cccc3F)CC2)n1 (stereo not drawn) [Compound D23, 2-(4-{1-[(2,6-Difluorophenyl)acetyl]piperidin-4-yl}-2-methylpyrimidin-5-yl)-1-{[4-(trifluoromethyl)pyrimidin-2-yl]amino}propan-2-ol]
